In the assay the test system is C57BL/KsJ-db/db (db/db) mice. Description: Plasma glucose and triglyceride lowering in db/db mice (Experimental Example 1). It counts as in vivo. The note with it: female db/db mice, 10 mg/kg orally once daily for 7 days, fed state; lean (+m/+m) group = 100% inhibition, db/db control = 0%. On the procedure: Female C57BL/KsJ-db/db (db/db) mice and C57BL/KsJ-+m/+m (lean) mice (5 weeks old) were purchased from Jackson Laboratory, and subjected to the test after 1-2 weeks of acclimating period. Animals were maintained on standard laboratory chow and water ad libitum.
Test compound was dissolved or suspended in 0.5% methylcellulose solution and administered orally once a day at a volume of 5 mL/kg of body weight.
• 4-({1-[(3,5-dichloro-2-pyridinyl)methyl]-2,4-dimethyl-1H-benzimidazol-6-yl}oxy)butanoic acid (Example 21) • 4-{[1-(2,4-dichlorobenzyl)-2-ethoxy-4-methyl-1H-benzimidazol-6-yl]oxy}butanoic acid (Example 39) • 2-{[(1-{[3-chloro-5-(trifluoromethyl)-2-pyridinyl]methyl}-2-methyl-1H-benzimidazol-6-yl)oxy]methyl}benzoic acid (Example 75) Test Schedule
At 6 weeks of age, blood was obtained from the retro-orbital sinus by capillary pipette with heparin under feeding condition. Mice were divided into groups matched for body weight, plasma glucose and triglyceride. From 6-7 weeks of age, test compound was administered orally once daily for 7 days. On the next morning of the last administration day, body weight was measured and blood was obtained under feeding condition, and plasma glucose and triglyceride were measured.
Plasma glucose and triglyceride were determined by a mutarotase.glucose oxidase method and a glycerol-3-phosphate oxidase.3,5-dimethoxy-N-ethyl-N-(2′-hydroxy-3′-sulfopropyl)aniline natrium method, respectively, using assay kits from Wako Pure Chemical Industries, Ltd. (Osaka, Japan).
Values of plasma glucose and triglyceride for the lean group (+m/+m) were set as 100% inhibition, and for the control group (db/db) as 0% inhibition. The inhibition rate of plasma glucose and triglyceride for the test group was determined.
`Cc1nc2ccc(OCc3ccccc3C(=O)O)cc2n1Cc1ncc(C(F)(F)F)cc1Cl` [Example 75, 2-{[(1-{[3-chloro-5-(trifluoromethyl)-2-pyridinyl]methyl}-2-methyl-1H-benzimidazol-6-yl)oxy]methyl}benzoic acid]: the “Inhibition rate of plasma glucose” value came to 72% and the “Inhibition rate of plasma triglyceride” value is given as 89%.

Take `Cc1cc(OCCCC(=O)O)cc2c1nc(C)n2Cc1ncc(Cl)cc1Cl` [Example 21, 4-({1-[(3,5-dichloro-2-pyridinyl)methyl]-2,4-dimethyl-1H-benzimidazol-6-yl}oxy)butanoic acid]: the “Inhibition rate of plasma glucose” value is given as 41% and the “Inhibition rate of plasma triglyceride” value stood at 55%.

Consider `CCOc1nc2c(C)cc(OCCCC(=O)O)cc2n1Cc1ccc(Cl)cc1Cl` [Example 39, 4-{[1-(2,4-dichlorobenzyl)-2-ethoxy-4-methyl-1H-benzimidazol-6-yl]oxy}butanoic acid], for which the “Inhibition rate of plasma glucose” value is given as 45% and the “Inhibition rate of plasma triglyceride” value is listed as 60%.

The record behind these values is patent US20050014812A1, “Benzimidazole compounds” (Fujisawa Pharmaceutical Co., Ltd., priority 2003, published 2005).
